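Each compound was tested at five concentrations against cells in 96-well plates for 48 hours. GI50 is the concentration that inhibits growth by half. TGI marks complete inhibition of growth.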
Columns and labels:
Test in all cases: NCI-60 cell line screen, 48 h
[1] = test system: BT-549 breast
[2] = test system: MALME-3M melanoma
[3] = test system: MCF7 breast
[4] = test system: MDA-MB-231 breast
[5] = test system: MDA-MB-435
[6] = test system: NCI-H522 lung
[7] = test system: OVCAR-4 ovarian
[8] = test system: SNB-75 CNS
[9] = test system: T-47D breast
[10] = test system: SR leukemia

Row | SMILES | GI50 [1] | TGI [1] | GI50 [2] | TGI [2] | GI50 [3] | TGI [3] | GI50 [4] | TGI [4] | GI50 [5] | TGI [5] | GI50 [6] | TGI [6] | GI50 [7] | TGI [7] | GI50 [8] | TGI [8] | GI50 [9] | TGI [9] | GI50 [10] | TGI [10]
1 | COc1ccc(C2=Nn3c(nnc3-c3ccc(F)c(Cl)c3)SC2)cc1 | > 100 µM | > 100 µM | > 100 µM | > 100 µM | > 100 µM | > 100 µM | 29.5 µM | > 100 µM | > 100 µM | > 100 µM | > 100 µM | > 100 µM | > 100 µM | > 100 µM | 63.3 µM | > 100 µM | > 100 µM | > 100 µM |  | 
2 | CNc1c2ccccc2nc2occ(Cl)c12 |  |  | 25.1 µM | 59.5 µM | 32.3 µM | > 100 µM |  |  | 17.2 µM | 79.9 µM | 80.3 µM | > 100 µM | 29.4 µM | > 100 µM |  |  | 66.1 µM | > 100 µM | 18.3 µM | 50.6 µM
3 | COc1ccc2nc3cc(Cl)ccc3c(Sc3ccc(N)cc3)c2c1 |  |  |  | 30.1 µM |  |  |  |  |  |  |  | 16.2 µM |  | 29.9 µM |  | 23.2 µM |  |  |  | 11.4 µM
4 | CC(=O)/C=C1\CC(=O)N(C)c2ccccc2N1 |  |  |  | > 100 µM |  |  |  |  |  |  |  | > 100 µM |  | > 100 µM |  | 0.953 µM |  |  |  | > 100 µM
5 | COc1ccc2c(c1OC)C(=O)C2 |  |  |  | > 100 µM |  |  |  |  |  |  |  | > 100 µM |  | > 100 µM |  | > 100 µM |  |  |  | > 100 µM
6 | Cn1c(=O)nc2n(-c3ccc(Br)cc3)c3ccccc3nc-2c1=O |  |  |  | 12.7 µM |  |  |  |  |  |  |  | 18.4 µM |  | 14.6 µM |  | 19.4 µM |  |  |  | 
7 | Cc1nc2ccccc2c(=O)n1/N=C(\N=Nc1ccc(Cl)cc1)c1cccc(-c2ccco2)c1 |  |  |  |  |  |  |  |  |  |  |  | 54.4 µM |  |  |  |  |  |  |  | 
8 | O=C1c2ccccc2C(=O)N1c1ccc(Cc2ccc(N3C(=O)c4ccccc4C3=O)cc2)cc1 |  | > 100 µM |  | > 100 µM |  | > 100 µM |  | > 100 µM |  | > 100 µM |  | > 100 µM |  | > 100 µM |  | > 100 µM |  | > 100 µM |  | 
9 | COc1ccccc1/C=C1\C(=O)N(C(=O)Cc2ccccc2)N=C1C |  |  |  | > 100 µM |  |  |  |  |  |  |  | > 100 µM |  | > 100 µM |  | > 100 µM |  |  |  | > 100 µM
10 | O=C1CCCC2=C1CC1=C(CCCC1=O)N2c1ccc(Cl)cc1 |  | > 100 µM |  | > 100 µM |  | > 100 µM |  | > 100 µM |  | > 100 µM |  |  |  | > 100 µM |  | > 100 µM |  |  |  | > 100 µM
11 | COc1ccc(-n2cc(-c3cc(OC)c(OC)c(OC)c3)nc2SCc2cccc(C#N)c2)cc1OC |  |  | > 100 µM | > 100 µM | 66.2 µM | > 100 µM | > 100 µM | > 100 µM | 90.5 µM | > 100 µM | 90 µM | > 100 µM | 2.12 µM | 39.6 µM | 0.924 µM | > 100 µM | > 100 µM | > 100 µM |  | 
12 | C=CC[P@]1(=O)O[C@H](c2ccccc2)C(C)N1C(C)C (stereo partly specified) |  |  |  | > 100 µM |  |  |  |  |  |  |  | > 100 µM |  |  |  | > 100 µM |  |  |  | > 100 µM
13 | O=C1OC(C(O)CO)C(C(O)CO)OC1=O (stereo unspecified) |  | > 10 µM |  | > 10 µM |  | > 10 µM |  | > 10 µM |  | > 10 µM |  |  |  | > 10 µM |  |  |  | > 10 µM |  | > 10 µM
14 | COc1cc(C[C@H]2COC(=O)[C@]2(O)Cc2ccc(OCc3ccccc3)c(OC)c2)ccc1OCc1ccccc1 | 28.1 µM | > 100 µM | 8.33 µM | 87.3 µM | 8.17 µM | > 100 µM | > 100 µM | > 100 µM | 20.9 µM | > 100 µM | 65.2 µM | > 100 µM | > 100 µM | > 100 µM | > 100 µM | > 100 µM | 12.1 µM | > 100 µM |  | 
15 | O=C1NC(c2ccccc2)(c2ccccc2)C(=O)N1CCCCCCN1C(=O)NC(c2ccccc2)(c2ccccc2)C1=O |  |  |  | 85.2 µM |  |  |  |  |  |  |  | 84.2 µM |  | 27.6 µM |  | 19.6 µM |  |  |  | 
16 | O=C1/C(=C/c2ccc(F)cc2)COc2ccc(O)c(O)c21 | 2.96 µM | 8.73 µM | 1.68 µM | 4.34 µM | 1.02 µM | > 100 µM | 1.43 µM | 6.25 µM | 2.07 µM | 8.78 µM | 0.304 µM | 1.24 µM | 2.77 µM | > 100 µM | 1.71 µM | > 100 µM | 2.4 µM | 9.67 µM |  | 
17 | O=S(=O)(F)Cc1ccccc1 |  | > 100 µM |  | 70 µM |  | > 100 µM |  | > 100 µM |  | > 100 µM |  | > 100 µM |  | > 100 µM |  | > 100 µM |  |  |  | > 100 µM
18 | COC1CCCc2c(OC(C)=O)ccc(OC(C)=O)c21 (stereo unspecified) |  |  |  | > 100 µM |  |  |  |  |  |  |  |  |  | > 100 µM |  | > 100 µM |  |  |  | > 100 µM
19 | COc1ccc2c(=O)c(-c3cc(OC)c(OC)cc3OC)coc2c1 |  | > 100 µM |  | > 100 µM |  | > 100 µM |  | > 100 µM |  |  |  | 5.44 µM |  | > 100 µM |  | 8.93 µM |  | > 100 µM |  | > 100 µM
20 | COc1ccc(-c2cc(=O)c3c(O)c(O)c(OC)cc3o2)cc1O |  |  |  | > 100 µM |  |  |  |  |  |  |  | > 100 µM |  | > 100 µM |  | > 100 µM |  |  |  | > 100 µM
21 | Cc1cccc(NC(=O)c2c(N)[n+]([O-])c3ccccc3[n+]2[O-])c1 |  |  |  | 27.1 µM |  |  |  |  |  |  |  | 20 µM |  | 23.3 µM |  | 30.2 µM |  |  |  | > 100 µM
22 | O=NNc1ccc(-c2ccccc2)cn1 |  | > 100 µM |  | 49.8 µM |  | > 23.6 µM |  | > 78.1 µM |  | 30.9 µM |  | 49.3 µM |  | > 70.6 µM |  | 29.3 µM |  | > 77.9 µM |  | 
23 | CC(C)(C)OC(=O)N(CCCCN(CCCn1c2c(c3ccccc3c1=O)C(=O)c1ccccc1-2)C(=O)OC(C)(C)C)CCCn1c2c(c3ccccc3c1=O)C(=O)c1ccccc1-2 | > 100 µM | > 100 µM | > 100 µM | > 100 µM |  |  | 13.9 µM | 47.2 µM | 68.7 µM | > 100 µM | 26.2 µM | > 100 µM | > 100 µM | > 100 µM | > 100 µM | > 100 µM | > 100 µM | > 100 µM | 0.304 µM | > 100 µM
